Assay results published in paper PMC9784689, “Bioactivity Profiling of In Silico Predicted Linear Toxins from the Ants Myrmica rubra and Myrmica ruginodis” (Toxins, 2022).
Like-named read-outs stand apart in the source and are kept apart here. No end group written: not given here.

Legend:
[1] = system: Escherichia coli, Staphylococcus aureus, Staphylococcus epidermidis, Pseudomonas aeruginosa (strains 50071 and 1117), Micrococcus luteus, Listeria …; assay: Antibacterial activity, statements for the whole panel of seven strains; format: cell-based; conditions: 100 µM, after 48 h, MH II medium, 37 °C, OD600, triplicate
[2] = system: Influenza B/Malaysia/2506/04 (Victoria lineage) in MDCK II cells; format: cell-based, influenza B virus; conditions: B/Mal, 100 µM peptides, 48 h
[3] = system: Influenza A/Hessen/1/03 (H3N2) in MDCK II cells; format: cell-based, influenza A virus; conditions: 100 µM peptides, 48 h
[4] = system: Influenza A/Hamburg/5/09 (H1N1) in MDCK II cells; format: cell-based, influenza A virus; conditions: 100 µM peptides, 48 h
[5] = system: larvae of the greater wax moth (Galleria mellonella); assay: Insecticidal activity, injection into larvae; format: in vivo; conditions: G. mellonella larvae, 10 specimens
[6] = system: Influenza B/Massachusetts/71 (Yamagata lineage) in MDCK II cells; format: cell-based, influenza B virus; conditions: B/Mass, 100 µM peptides, 48 h
MDCK II cells = conditions: 48 h; for Normalized data, cell viability: MDCK II, 100 µM peptides, CellTiter-Glo, normalized to DMSO control = 100% viability

Row | Compound | Inhibition of bacterial growth, in words [1] | Normalized to Aprotinin =1 (protection) ([2]; replicate 1) | Normalized to Aprotinin =1 (protection) ([2]; replicate 2) | Normalized to Aprotinin =1 (protection) ([2]; replicate 3) | Normalized to Aprotinin =1 (protection) ([3]; replicate 1) | Normalized to Aprotinin =1 (protection) ([3]; replicate 2) | Normalized to Aprotinin =1 (protection) ([3]; replicate 3) | Normalized to Aprotinin =1 (protection) ([4]; replicate 1) | Normalized to Aprotinin =1 (protection) ([4]; replicate 2) | Normalized to Aprotinin =1 (protection) ([4]; replicate 3) | Injected larvae surviving ([5]; injection of 5 µL of 10 mM stock in DMSO/water, at least 72 h) [%] | Normalized to Aprotinin =1 (protection) ([6]; replicate 1) | Normalized to Aprotinin =1 (protection) ([6]; replicate 2) | Normalized to Aprotinin =1 (protection) ([6]; replicate 3) | Larvae killed (mortality) ([5]; injection (peptides 5 µL of 10 mM stock; ethanol control 10 µL), 72 h) [%] | Cytotoxicity (cell viability), in words (MDCK II cells; MDCK II cells, 100 µM, 1% DMSO, CellTiter-Glo luminescence, triplicate) | Normalized data, cell viability (MDCK II cells; replicate 1) [%] | Normalized data, cell viability (MDCK II cells; replicate 2) [%] | Normalized data, cell viability (MDCK II cells; replicate 3) [%]
1 | INPKLLESL-NH2 (C-terminus assumed) [U-MYRTX-Mrug5b] | no significant inhibition of bacterial growth | 0.03907 | 0.06268 | 0.0833 | 0.06533 | 0.04634 | 0.07887 | 0.02999 | 0.0228 | 0.007801 | 80 | 0.0139 | 0.008064 | 0.0246 |  |  |  |  | 
2 | CCO [ethanol, reference compound] |  |  |  |  |  |  |  |  |  |  |  |  |  |  | 70 |  |  |  | 
3 | IDRSEKTERE-NH2 (C-terminus assumed) [U-MYRTX-Mrub3a] | no significant inhibition of bacterial growth | 0.04706 | 0.1383 | 0.1034 | 0.1064 | 0.05676 | 0.1027 | 0.05191 | 0.05042 | 0.0422 |  | 0.02341 | 0.02308 | 0.03331 |  |  |  |  | 
4 | C[C@H](CCC(=O)O)C[C@H](C)C[C@H](C)C(=O)/C=C(\O)[C@H](C)C[C@H](C)C/C=C/[C@@H](C)[C@@H](O)[C@@H](C)[C@@H](O)C[C@@H]1CC[C@@](C)([C@H]2CC[C@@](C)([C@@H](C)O)O2)O1 [Ionomycin, ionomycin, reference compound] |  |  |  |  |  |  |  |  |  |  |  |  |  |  |  | high cytotoxicity | 0.2057 | 0.1877 | 0.1629
5 | IDPKLLESLA-NH2 (C-terminus assumed) [U-MYRTX-Mrub2a] | no significant inhibition of bacterial growth | 0.08852 | 0.1729 | 0.1453 | 0.09958 | 0.07892 | 0.1212 | 0.07403 | 0.07306 | 0.0814 |  | 0.008341 | 0.1091 | 0.1749 |  |  |  |  | 
